# Reference: US20260226068A1, “IMIDAZOTRIAZINE IL-17A MODULATORS AND USES THEREOF” (DICE ALPHA, INC., priority 2023, published 2026)
# pIC50: −log10 of the molar value.
# Key:
# IL-17A/A = biological target: T1, IL-17A/A (Homo sapiens, UniProt Q16552); experiment: IL-17A/A HEK-Blue cell assay (SEAP reporter); assay type: cell-based; conditions: HEK-Blue IL-17A reporter cells, IL17A/A 5 ng/mL, 20 hours, SEAP read at A630; read-out: HEK-Blue IL17AA (IC50 for IL-17A/A inhibition)
# T1 construct: purchased Genscript Z03228
# T1 sequence (Q16552 24-155): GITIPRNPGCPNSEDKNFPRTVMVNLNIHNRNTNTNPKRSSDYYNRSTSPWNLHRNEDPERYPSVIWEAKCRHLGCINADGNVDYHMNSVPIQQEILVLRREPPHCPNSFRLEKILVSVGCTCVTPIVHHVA
# IL-17A/F = biological target: T2, IL-17A/F (Homo sapiens, UniProt Q16552+Q96PD4); experiment: IL-17A/F HEK-Blue cell assay (SEAP reporter); assay type: cell-based; conditions: HEK-Blue IL-17A reporter cells, IL17A/F 5 ng/mL, 20 hours, SEAP read at A630; read-out: HEK-Blue IL17AF (IC50 for IL-17A/F inhibition)
# T2 construct: purchased R&D Systems
# T2 sequence (Q16552 24-155): T1 sequence (Q16552 24-155)
# T2 sequence (Q96PD4 31-163): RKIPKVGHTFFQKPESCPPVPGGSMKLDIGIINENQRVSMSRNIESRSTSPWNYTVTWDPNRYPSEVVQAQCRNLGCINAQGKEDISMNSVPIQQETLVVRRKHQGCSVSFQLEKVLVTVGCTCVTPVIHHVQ
pIC50 (IL-17A/A),pIC50 (IL-17A/F),SMILES
> 7.00,< 6.00,"Cc1nonc1C(=O)N[C@H](c1cn2nc(C[C@H]3C[C@@H](C(F)(F)F)CNC3=O)c(C3CCCOC3)nc2n1)C1CCC(F)(F)CC1 (single isomer, unassigned) [Compound 265]"
> 7.00,< 6.00,"Cc1nonc1C(=O)N[C@H](c1cn2nc(C[C@H]3C[C@@H](C(F)(F)F)CNC3=O)c([C@@H]3CCCOC3)nc2n1)C1CCC(F)(F)CC1 (single isomer, unassigned) [Compound 266]"
> 7.00,6.00 to 7.00,"Cn1nccc1C(=O)N[C@H](c1cn2nc(C[C@H]3C[C@@H](C(F)(F)F)CNC3=O)c([C@H]3CCCOC3)nc2n1)[C@H]1CCCC(F)(F)C1 (single isomer, unassigned) [Compound 267]"
> 7.00,6.00 to 7.00,"Cn1nccc1C(=O)N[C@H](c1cn2nc(C[C@H]3C[C@@H](C(F)(F)F)CNC3=O)c([C@@H]3CCCOC3)nc2n1)[C@H]1CCCC(F)(F)C1 (single isomer, unassigned) [Compound 268]"
> 7.00,6.00 to 7.00,"CCn1nccc1C(=O)N[C@H](c1cn2nc(C[C@H]3C[C@@H](C(F)(F)F)CNC3=O)c(C3CCCC(F)(F)C3)nc2n1)C1CCC(F)(F)CC1 (single isomer, unassigned) [Compound 271]"
> 7.00,> 7.00,"CCn1nccc1C(=O)N[C@H](c1cn2nc(C[C@H]3C[C@@H](C(F)(F)F)CNC3=O)c([C@@H]3CCCC(F)(F)C3)nc2n1)C1CCC(F)(F)CC1 (single isomer, unassigned) [Compound 272]"
> 7.00,< 6.00,"Cc1nonc1C(=O)N[C@H](c1cn2nc(C[C@H]3C[C@@H](C(F)(F)F)CNC3=O)c([C@H]3CCOC3)nc2n1)C1CCC(F)(F)CC1 (single isomer, unassigned) [Compound 274]"
> 7.00,< 6.00,"Cc1nonc1C(=O)N[C@H](c1cn2nc(C[C@H]3C[C@@H](C(F)(F)F)CNC3=O)c([C@@H]3CCOC3)nc2n1)C1CCC(F)(F)CC1 (single isomer, unassigned) [Compound 275]"
6.00 to 7.00,< 6.00,"CCn1nccc1C(=O)N[C@H](c1cn2nc(C[C@H]3C[C@@H](C(F)(F)F)CNC3=O)c(C3CCN(C)C3)nc2n1)C1CCC(F)(F)CC1 (single isomer, unassigned) [Compound 285]"
> 7.00,> 7.00,"CCn1nccc1C(=O)N[C@H](c1cn2nc(C[C@H]3C[C@@H](C(F)(F)F)CNC3=O)c(C3CCOCC3)nc2n1)[C@@H]1CC[C@@H]2C[C@@H]2CC1 (single isomer, unassigned) [Compound 293]"
> 7.00,> 7.00,"CCn1nccc1C(=O)N[C@H](c1cn2nc(C[C@H]3C[C@@H](C(F)(F)F)CNC3=O)c(C3CCOCC3)nc2n1)C1CC[C@@H]2C[C@@H]2CC1 (single isomer, unassigned) [Compound 294]"
> 7.00,6.00 to 7.00,"CCn1nccc1C(=O)N[C@H](c1cn2nc(C[C@H]3C[C@@H](C(F)(F)F)CNC3=O)c([C@H]3CCOC3)nc2n1)C(C1CC1)C1CC1 (single isomer, unassigned) [Compound 321]"
> 7.00,6.00 to 7.00,"CCn1nccc1C(=O)N[C@H](c1cn2nc(C[C@H]3C[C@@H](C(F)(F)F)CNC3=O)c([C@@H]3CCOC3)nc2n1)C(C1CC1)C1CC1 (single isomer, unassigned) [Compound 322]"
6.00 to 7.00,< 6.00,"CCn1nccc1C(=O)N[C@H](c1cn2nc(C[C@H]3C[C@@H](C(F)(F)F)CNC3=O)c([C@@H]3CCCCN3)nc2n1)C1CCC(F)(F)CC1 (single isomer, unassigned) [Compound 324]"
6.00 to 7.00,< 6.00,"CCn1nccc1C(=O)N[C@H](c1cn2nc(C[C@H]3C[C@@H](C(F)(F)F)CNC3=O)c([C@H]3CCCCN3)nc2n1)C1CCC(F)(F)CC1 (single isomer, unassigned) [Compound 325]"
> 7.00,< 6.00,"CCn1nccc1C(=O)N[C@H](c1cn2nc(C[C@H]3C[C@@H](C(F)(F)F)CNC3=O)c([C@@H]3CN(C)CCO3)nc2n1)C1CCC(F)(F)CC1 (single isomer, unassigned) [Compound 376]"

pIC50 (IL-17A/A),pIC50 (IL-17A/F),SMILES
6.00 to 7.00,< 6.00,"CCn1nccc1C(=O)N[C@H](c1cn2nc(C[C@H]3C[C@@H](C(F)(F)F)CNC3=O)c([C@H](C)N3CCOCC3)nc2n1)C1CCC(F)(F)CC1 (single isomer, unassigned) [Compound 381]"
> 7.00,< 6.00,"CCn1nccc1C(=O)N[C@H](c1cn2nc(C[C@H]3C[C@@H](C(F)(F)F)CNC3=O)c([C@H]3CN(C)CCO3)nc2n1)C1CCC(F)(F)CC1 (single isomer, unassigned) [Compound 382]"
> 7.00,6.00 to 7.00,"CCn1nccc1C(=O)N[C@H](c1cn2nc(C[C@H]3C[C@@H](C(F)(F)F)CNC3=O)c(C3Cc4cncnc4C3)nc2n1)C1CCC(F)(F)CC1 (single isomer, unassigned) [Compound 400]"
6.00 to 7.00,< 6.00,"CCn1nccc1C(=O)N[C@H](c1cn2nc(C[C@H]3C[C@@H](C(F)(F)F)CNC3=O)c([C@@H]3CCCN(C)C3)nc2n1)C1CCC(F)(F)CC1 (single isomer, unassigned) [Compound 401]"
> 7.00,6.00 to 7.00,"CCn1nccc1C(=O)N[C@H](c1cn2nc(C[C@H]3C[C@@H](C(F)(F)F)CNC3=O)c(C3Cc4cncnc4C3)nc2n1)C1CCC(F)(F)CC1 (single isomer, unassigned) [Compound 402]"
> 7.00,< 6.00,"CCn1nccc1C(=O)N[C@H](c1cn2nc(C[C@H]3C[C@@H](C(F)(F)F)CNC3=O)c(C3CCCN(C)C3)nc2n1)C1CCC(F)(F)CC1 (single isomer, unassigned) [Compound 403]"
6.00 to 7.00,< 6.00,"CCn1nccc1C(=O)N[C@H](c1cn2nc(C[C@H]3C[C@@H](C(F)(F)F)CNC3=O)c(C3COCCN3C)nc2n1)C1CCC(F)(F)CC1 (single isomer, unassigned) [Compound 404]"
> 7.00,6.00 to 7.00,"CCn1nccc1C(=O)N[C@H](c1cn2nc(C[C@H]3C[C@@H](C(F)(F)F)CNC3=O)c(N3CCN(C)[C@H](C4CC4)C3)nc2n1)C1CCC(F)(F)CC1 (single isomer, unassigned) [Compound 431]"
> 7.00,6.00 to 7.00,"CCn1nccc1C(=O)N[C@H](c1cn2nc(C[C@H]3C[C@@H](C(F)(F)F)CNC3=O)c(N3CCN(C)C(C4CC4)C3)nc2n1)C1CCC(F)(F)CC1 (single isomer, unassigned) [Compound 432]"
6.00 to 7.00,< 6.00,"CCn1nccc1C(=O)N[C@H](c1cn2nc(C[C@H]3C[C@@H](C(F)(F)F)CNC3=O)c(C3CCN(C)C3)nc2n1)C1CCC(F)(F)CC1 (single isomer, unassigned) [Compound 439]"
> 7.00,< 6.00,"CCn1nccc1C(=O)N[C@H](c1cn2nc(CC3C[C@@H](C(F)(F)F)CNC3=O)c(C3CCOCC3)nc2n1)C1CCC(F)(F)CC1 (stereo in doubt) [Compound 89, N-((1S)-(4,4-difluorocyclohexyl)(2-(((3R,5R)-2-oxo-5-(trifluoromethyl)piperidin-3-yl)methyl)-3-(tetrahydro-2H-pyran-4-yl)imidazo[1,2-b][1,2,4]triazin-6-yl)methyl)-1-ethyl-1H-pyrazole-5-carboxamide]"
> 7.00,< 6.00,"CCn1ncnc1C(=O)N[C@H](c1cn2nc(C[C@H]3C[C@@H](C(F)(F)F)CNC3=O)c(C3CCOCC3)nc2n1)C1CCCC(F)(F)C1 (stereo in doubt) [Compound 384, N—((S)—((S)-3,3-difluorocyclohexyl)(2-(((3R,5R)-2-oxo-5-(trifluoromethyl)piperidin-3-yl)methyl)-3-(tetrahydro-2H-pyran-4-yl)imidazo[1,2-b][1,2,4]triazin-6-yl)methyl)-1-ethyl-1H-1,2,4-triazole-5-carboxamide]"
6.00 to 7.00,< 6.00,"Cn1nccc1C(=O)N[C@H](c1cn2nc(CC3C[C@@H](C(F)(F)F)CNC3=O)cnc2n1)C1CCC(F)(F)CC1 (stereo partly drawn) [Compound 3, N—((S)-(4,4-difluorocyclohexyl)(2-(((5R)-2-oxo-5-(trifluoromethyl)piperidin-3-yl)methyl)imidazo[1,2-b][1,2,4]triazin-6-yl)methyl)-1-methyl-1H-pyrazole-5-carboxamide]"
> 7.00,< 6.00,"CC(C)n1nccc1C(=O)N[C@H](c1cn2nc(CC3C[C@@H](C(F)(F)F)CNC3=O)cnc2n1)C1CCC(F)(F)CC1 (stereo partly drawn) [Compound 6, N—((S)-(4,4-difluorocyclohexyl)(2-(((5R)-2-oxo-5-(trifluoromethyl)piperidin-3-yl)methyl)imidazo[1,2-b][1,2,4]triazin-6-yl)methyl)-1-isopropyl-1H-pyrazole-5-carboxamide]"
6.00 to 7.00,< 6.00,"O=C(N[C@H](c1cn2nc(CC3C[C@@H](C(F)(F)F)CNC3=O)cnc2n1)C1CCC(F)(F)CC1)c1conc1CCF (stereo partly drawn) [Compound 7, N—((S)-(4,4-difluorocyclohexyl)(2-(((5R)-2-oxo-5-(trifluoromethyl)piperidin-3-yl)methyl)imidazo[1,2-b][1,2,4]triazin-6-yl)methyl)-3-(2-fluoroethyl)isoxazole-4-carboxamide]"
